Where a name gives a salt, the structure may show the parent alone.

T1 sequence (Q9Y2T5 whole entry): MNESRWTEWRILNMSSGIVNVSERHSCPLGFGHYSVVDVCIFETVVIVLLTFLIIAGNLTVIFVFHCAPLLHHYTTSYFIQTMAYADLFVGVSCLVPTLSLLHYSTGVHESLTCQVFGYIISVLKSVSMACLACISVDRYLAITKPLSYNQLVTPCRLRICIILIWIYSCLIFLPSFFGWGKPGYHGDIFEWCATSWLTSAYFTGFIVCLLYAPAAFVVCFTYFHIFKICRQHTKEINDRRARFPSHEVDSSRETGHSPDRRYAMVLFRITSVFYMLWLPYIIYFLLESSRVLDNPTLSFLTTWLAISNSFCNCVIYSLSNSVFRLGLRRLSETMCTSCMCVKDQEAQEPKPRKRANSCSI

The assay has as its target T1, recombinant human GPR52 (Homo sapiens, UniProt Q9Y2T5).
T1 construct: expressed in transfected cells
As to the kind of experiment: GPR52 activity: TR-FRET cAMP assay (LANCE Ultra cAMP Kit). The assay is classed as cell-based. The conditions noted are these: Flp-In-CHO cells stably expressing recombinant human GPR52; cAMP production, normalized to positive control. Here is the method: TR-FRET cAMP assays were performed using commercially available assay kits (LANCE™ Ultra cAMP Kit). Controls and compounds were solubilized in DMSO using ½ log dilution to generate duplicate 10-point dose response curves in 384-well polypropylene compound plates. Sixty nanoliters of the diluted compounds were transferred into 384-well NBS assay plates and further diluted to 1× with the addition of 2000 cells per well. Flp-In™-CHO cells that stably express recombinant human GPR52.
Cells were harvested with cell stripper and resuspended in Stimulation Buffer (5 mM HEPES, 0.1% bovine serum albumin (BSA), 0.5 mM IBMX, pH 7.4). After thirty minutes incubation at room temperature, detection reagents were added to each well. Plates were then incubated for 30 minutes at room temperature. The LANCE™ Ultra cAMP assay uses time-resolved fluorescence resonance energy transfer (TR-FRET) to detect cAMP production; this signal was quantified using a Pherastar multi-mode plate reader.
Dose-response curves were generated from the fluorescence counts normalized to the positive control. E EC50 values were obtained using a nonlinear regression curve-fitting program.
Background: Time-resolved FRET reads energy transfer from a long-lived donor to a nearby acceptor.
The term EC50 denotes the concentration that produces a half-maximal response. In the case of `Cc1cc(-c2cc(Cc3cccc(S(=O)(=O)C(F)(F)F)c3)ccn2)ccc1C(N)=O` [Compound 34, 2-methyl-4-{4-[(3-trifluoromethanesulfonylphenyl)methyl]pyridin-2-yl}benzamide hydrochloride], the EC50 lay in the range of 101 to 1000 nM. With `Cc1cc(-c2cc(Cc3cc(F)c(F)c(Cl)c3)ccn2)ccc1C(N)=O` [Compound 2, 4-{4-[(3-chloro-4,5-difluorophenyl)methyl]pyridin-2-yl}-2-methylbenzamide], the EC50 was under 25 nM. Consider `Cc1cc(-c2cc(Cc3cccc(C(F)(F)F)c3)ccn2)ccc1C(=O)N1CCNCC1` [Compound 35, 1-[2-methyl-4-(4-{[3-(trifluoromethyl)phenyl]methyl}pyridin-2-yl)benzoyl]piperazine hydrochloride], for which the EC50 is under 25 nM.

In the case of `NC(=O)c1ccc(-c2cc(Cc3cccc(OC(F)(F)F)c3)ccn2)cc1` [Compound 26, 4-(4-{[3-(trifluoromethoxy)phenyl]methyl}pyridin-2-yl)benzamide], the half-maximal effective concentration (EC50) is 101 to 1000 nM.

The values above are taken from patent publication US20240208907A1, “GPR52 MODULATORS AND METHODS OF USE” (Neurocrine Biosciences, Inc., priority 2021, published 2024).
